Results taken from patent US20230234936A1, “COMPOUND FOR TARGETING AND DEGRADING PROTEIN, AND PREPARATION METHOD THEREFOR AND USE THEREOF” (SHANGHAI LEADINGTAC PHARMACEUTICAL CO., LTD., priority 2020, published 2023).

Columns and labels:
[1] = target: T1, IRAK4 kinase (Homo sapiens, UniProt Q9NWZ3); assay: IRAK4 kinase activity test (KinEASE-STK S1 HTRF kit); format: biochemical; settings: 2.5 nM kinase, 1 μM biotinylated polypeptide substrate, 7 μM ATP, 37° C. 120 min
T1 sequence (Q9NWZ3 1-460): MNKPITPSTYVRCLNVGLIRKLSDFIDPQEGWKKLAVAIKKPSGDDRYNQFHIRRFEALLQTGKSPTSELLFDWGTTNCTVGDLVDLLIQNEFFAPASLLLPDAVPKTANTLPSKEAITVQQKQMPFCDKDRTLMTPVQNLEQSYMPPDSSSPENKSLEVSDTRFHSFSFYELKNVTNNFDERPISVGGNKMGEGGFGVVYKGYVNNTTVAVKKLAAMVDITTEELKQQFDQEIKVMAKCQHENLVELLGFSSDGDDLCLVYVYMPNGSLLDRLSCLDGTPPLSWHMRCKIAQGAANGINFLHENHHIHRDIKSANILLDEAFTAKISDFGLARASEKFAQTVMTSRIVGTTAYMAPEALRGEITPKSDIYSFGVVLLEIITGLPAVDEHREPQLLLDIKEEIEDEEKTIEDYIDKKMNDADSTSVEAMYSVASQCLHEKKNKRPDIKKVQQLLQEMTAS
Method in brief: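 Compound in DMSO, serially diluted to 10000–0.038 nM final, incubated with 2.5 nM kinase, 1 μM biotinylated peptide substrate and 7 μM ATP at 37° C for 120 min. Eu-anti-phospho-Ser/Thr antibody plus streptavidin-XL665 stopped the reaction (1 h RT). HTRF 665/620 nm ratio gave % inhibition versus control; IC50 from nonlinear log-concentration fit.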

[2] = target: T2, IRAK4 protein in THP-1 cells (Homo sapiens, UniProt Q9NWZ3); assay: Degradation of IRAK4 in THP-1 cells (Western blot); format: cell-based; settings: 24 hours, compound 1-3000 nM
T2 construct: endogenous in cells; host or cells: THP-1
T2 sequence (Q9NWZ3 1-460): T1 sequence (Q9NWZ3 1-460)
Method in brief: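 THP-1 cells (5×10^5/well) treated 24 h with compound at 1–3000 nM final. IRAK4 in lysates quantified by Western blot, normalized to internal reference and compared with control to give degradation rate; DC50 and Dmax from nonlinear fit of log concentration.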

[3] = target: T3, IKZF1 in L363 cells (Homo sapiens, UniProt Q13422+Q96SW2); assay: Degradation of IKZF1 in L363 cells (Western blot); format: cell-based; settings: 1000 nM, 16 hours
T3 construct: endogenous in cells; host or cells: L363
Experimental: (§1) The 24-well cell culture plate was inoculated with 0.95 mL L363 cells (Nanjing Co-bioer) per well with a cell density of 6×10^5 cells/well. The cell plate was placed in a 5% carbon dioxide incubator and cultured at 37° C. for 8 hours, then 50 μL of compound solution was added. The final concentration of the compound was 1000 nM. After continuing to culture for 16 hours, the cells were collected into a 1.5 mL centrifuge tube and centrifuged at 3000 rpm and 4° C. for 5 minutes. Cell precipitation was cleaned twice with 1×DPBS, resuspended cells were lysed with 100 μL lysate (cell lysate was Western and IP cell lysate (Beyotime), supplemented with 1 mM mixture of phenylmethylsulfonyl fluoride and protease inhibitor (Beyotime)), left on ice for 30 minutes, then centrifuged at 14000 g at 4° C. for 10 minutes, and the supernatant was taken to detect IKZF1 and IKZF3 protein level by Western blot.
(§2) The total protein concentration in the supernatant of cell lysis was determined by BCA protein quantitative kit (Tiangen). According to the concentration of total protein detected by BCA, the supernatant was adjusted to 0.2 μg/μL with PBS and 5× SDS-PAGE protein loading buffer (Beyotime), bathed in water at 100° C. for 10 minutes, then placed in ice bath for 5 minutes, centrifuged at 14000 g and 4° C. for 5 minutes, and then collected as WB loading sample. Prefabricated glue (KeyGEN) was used for protein electrophoresis with a loading amount of 10 μL (total protein 2 μg). After Tris-MOPS-SDS electrophoresis solution (Adamas), 120V constant pressure electrophoresis was performed. After electrophoresis, the protein on the adhesive strip was transferred to PVDF membrane with a constant current of […] for 50 minutes. After the membrane was transferred, the membrane was incubated in 5% bovine serum albumin solution for 2 hours at room temperature. After blocking, PVDF membranes were incubated with IKZF1 primary antibody (CST) and IKZF3 primary antibody (Abcam) overnight at 4°, the membranes were washed with TBST buffer (2.4 g Tris, 8.8 g NaCl, 1.5 mL Tween 20, pH adjusted to 7.4, constant volume to IL) for 30 minutes, incubated with secondary antibody (Abcam) for 2 hours at room temperature, finally incubated with Clarity Western ECL Substrate(BIO-RAD) for 5 minutes for luminescence development, chemiluminescence imaging system (Clinx, chemiScope 6200 Touch) for development and protein mapping photography. The protein map was analyzed by Clinx chemiluminescence analysis software for grayscale values. Using the formula: grayscale correction value=(target protein grayscale value/corresponding internal reference grayscale value)×10^3, the grayscale correction value of each sample was calculated. The degradation rate was calculated by comparing with the grayscale correction value of the control group.

[4] = target: T4, IKZF3 in L363 cells (Homo sapiens, UniProt Q96SW2+Q9UKT9); assay: Degradation of IKZF3 in L363 cells (Western blot); format: cell-based; settings: 1000 nM, 16 hours
T4 construct: endogenous in cells; host or cells: L363
Experimental: as §1, §2

T3 sequence (Q13422 whole entry): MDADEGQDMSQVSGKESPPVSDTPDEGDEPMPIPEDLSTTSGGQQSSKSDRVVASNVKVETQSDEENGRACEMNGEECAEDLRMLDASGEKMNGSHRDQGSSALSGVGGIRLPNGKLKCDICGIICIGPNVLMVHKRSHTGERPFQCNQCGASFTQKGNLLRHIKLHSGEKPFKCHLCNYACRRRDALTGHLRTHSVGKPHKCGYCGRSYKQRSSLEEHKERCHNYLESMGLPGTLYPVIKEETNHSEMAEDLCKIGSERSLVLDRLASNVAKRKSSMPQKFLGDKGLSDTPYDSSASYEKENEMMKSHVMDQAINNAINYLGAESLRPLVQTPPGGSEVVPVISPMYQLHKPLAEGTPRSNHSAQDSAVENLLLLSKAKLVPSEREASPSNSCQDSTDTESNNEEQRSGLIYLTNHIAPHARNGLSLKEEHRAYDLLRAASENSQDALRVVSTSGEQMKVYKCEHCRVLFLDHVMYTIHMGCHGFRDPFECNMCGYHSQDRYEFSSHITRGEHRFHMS
T3 sequence (Q96SW2 whole entry): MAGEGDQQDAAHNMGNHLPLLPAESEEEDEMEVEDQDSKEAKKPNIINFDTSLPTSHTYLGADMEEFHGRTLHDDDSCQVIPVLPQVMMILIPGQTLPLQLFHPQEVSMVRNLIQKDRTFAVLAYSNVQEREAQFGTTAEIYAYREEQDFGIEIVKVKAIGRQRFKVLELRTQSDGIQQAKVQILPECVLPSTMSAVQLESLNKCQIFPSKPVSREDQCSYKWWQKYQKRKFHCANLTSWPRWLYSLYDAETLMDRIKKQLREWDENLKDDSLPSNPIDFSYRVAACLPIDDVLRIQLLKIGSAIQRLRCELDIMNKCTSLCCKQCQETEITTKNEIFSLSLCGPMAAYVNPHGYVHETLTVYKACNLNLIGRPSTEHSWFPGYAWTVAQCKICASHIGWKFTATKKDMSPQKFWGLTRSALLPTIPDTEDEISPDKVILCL
T3 sequence (Q16531 whole entry partner): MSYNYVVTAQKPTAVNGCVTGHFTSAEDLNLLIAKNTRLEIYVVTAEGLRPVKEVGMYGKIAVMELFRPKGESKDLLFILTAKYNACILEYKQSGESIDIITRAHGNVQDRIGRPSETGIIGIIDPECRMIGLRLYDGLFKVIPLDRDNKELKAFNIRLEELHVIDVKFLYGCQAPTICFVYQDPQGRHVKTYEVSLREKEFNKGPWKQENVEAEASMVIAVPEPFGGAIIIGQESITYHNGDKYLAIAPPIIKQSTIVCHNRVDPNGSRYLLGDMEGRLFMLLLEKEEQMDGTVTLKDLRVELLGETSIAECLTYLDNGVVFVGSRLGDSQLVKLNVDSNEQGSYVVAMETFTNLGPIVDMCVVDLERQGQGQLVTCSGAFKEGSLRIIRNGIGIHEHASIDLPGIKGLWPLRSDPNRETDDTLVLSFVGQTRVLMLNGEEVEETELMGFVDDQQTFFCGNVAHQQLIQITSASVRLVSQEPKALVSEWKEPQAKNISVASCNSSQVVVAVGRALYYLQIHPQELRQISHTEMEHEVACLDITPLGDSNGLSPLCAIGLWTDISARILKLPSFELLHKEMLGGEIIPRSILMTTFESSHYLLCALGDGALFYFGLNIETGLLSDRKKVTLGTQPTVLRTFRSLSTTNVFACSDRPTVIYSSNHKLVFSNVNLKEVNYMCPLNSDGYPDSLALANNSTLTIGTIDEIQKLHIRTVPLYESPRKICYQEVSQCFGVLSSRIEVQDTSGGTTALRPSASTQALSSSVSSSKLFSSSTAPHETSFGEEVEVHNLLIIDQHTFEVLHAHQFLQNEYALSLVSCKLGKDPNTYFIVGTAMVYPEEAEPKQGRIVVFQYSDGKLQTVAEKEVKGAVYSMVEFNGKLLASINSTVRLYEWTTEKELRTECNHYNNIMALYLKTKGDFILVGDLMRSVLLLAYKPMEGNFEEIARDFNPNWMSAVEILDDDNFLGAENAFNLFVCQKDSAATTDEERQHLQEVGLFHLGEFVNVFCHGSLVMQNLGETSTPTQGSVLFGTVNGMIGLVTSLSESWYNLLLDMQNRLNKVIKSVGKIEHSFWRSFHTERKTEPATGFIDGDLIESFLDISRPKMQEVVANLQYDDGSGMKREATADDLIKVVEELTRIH
T4 sequence (Q9UKT9 whole entry): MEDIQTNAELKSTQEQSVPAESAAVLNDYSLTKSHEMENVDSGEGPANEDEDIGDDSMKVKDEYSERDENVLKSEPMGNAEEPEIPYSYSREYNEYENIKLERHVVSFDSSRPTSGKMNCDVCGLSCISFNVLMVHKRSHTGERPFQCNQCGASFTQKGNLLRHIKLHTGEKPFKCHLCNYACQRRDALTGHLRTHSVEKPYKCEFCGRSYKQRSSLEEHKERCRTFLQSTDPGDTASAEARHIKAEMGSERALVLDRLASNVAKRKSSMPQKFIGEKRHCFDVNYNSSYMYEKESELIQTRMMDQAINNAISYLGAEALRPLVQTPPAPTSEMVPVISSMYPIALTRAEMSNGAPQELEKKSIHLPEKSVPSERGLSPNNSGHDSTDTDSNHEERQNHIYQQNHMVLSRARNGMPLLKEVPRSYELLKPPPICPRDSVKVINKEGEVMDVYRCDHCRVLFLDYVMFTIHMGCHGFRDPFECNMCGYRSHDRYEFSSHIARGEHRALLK
T4 sequence (Q96SW2 whole entry): as the sequence (Q96SW2 whole entry) above
T4 sequence (Q16531 whole entry partner): as the sequence (Q16531 whole entry partner) above

Structure (SMILES)	IC50 [1] [nM]	DC50 [2] [nM]	Dmax [2] [%]	IKZF1 degradation rate [3] [%]	IKZF3 degradation rate [4] [%]
CC(C)(O)c1cc2nn(C3CCN(CCC4CCC5(CC4)CCN(C(=O)c4ccc(F)c(N6CCC(=O)NC6=O)c4)CC5)CC3)cc2cc1NC(=O)c1cccc(C(F)(F)F)n1 [Example 34, N-(2-(1-(2-(3-(3-(2,4-dioxotetrahydro-pyrimidin-1 (2H)-yl)-4-fluoro-benzoyl)-3-azaspiro[5.5]undec-9-yl)ethyl)piperidin-4-yl)-6-(2-hydroxyprop-2-yl)-2H-indazol-5-yl)-6-(trifluoro-methyl) pyridinecarbox-amide]	16.5	2.5	98.1	10.2 ± 1.8	−2.2 ± 2.8
CC(C)(O)c1cc2nn(C3CCN(CCC4CCC5(CC4)CCN(C(=O)c4ccc(F)c(C6CCC(=O)NC6=O)c4)CC5)CC3)cc2cc1NC(=O)c1cccc(C(F)(F)F)n1 (stereo not drawn) [Example 40, N-(2-(1-(2-(3-(3-(2,6-dioxopiperidin-3-yl)-4-fluoro-benzoyl)-3-azaspiro [5.5]undec-9-yl)ethyl)piperidin-4-yl)-6-(2-hydroxyprop-2-yl)-2H-indazol-5-yl)-6-(trifluoro-methyl) pyridinecarbox-amide]	35.1	4.8	98	53.8 ± 2.0	9.8 ± 2.0
Nc1cccc2c1C(=O)N(C1CCC(=O)NC1=O)C2=O (stereo not drawn) [Pomalidomide]	–	–	–	99.7 ± 0.2	98.6 ± 0.6
